# Measured values published in patent US9695155B2, “Herbicidal substituted pyrimidinyloxy benzene compounds” (E. I. DU PONT DE NEMOURS AND COMPANY, priority 2013, dated 2017).
# How the values were obtained:
# velvetleaf [1] = assay: Test A preemergence; format: in vivo, Abutilon theophrasti
# In short: (§1)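 Injury scores run from 0, no effect, to 100, complete control, judged by eye against untreated plants roughly 10 days after treatment. Chemicals carried a surfactant in a non-phytotoxic solvent and went onto loam–sand soil preemergence or onto one- to two-leaf seedlings postemergence.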
# johnsongrass = assay: Test C preemergence; format: in vivo, Sorghum halepense; conditions: Sorghum halepense, pre-emergence, preemergence, read-out: Johnsongrass plant response rating
# In short: (§2)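 Whole-plant greenhouse test with surfactant-containing solvent formulation, applied preemergence to sown loam–sand pots or postemergence to 2–18 cm plants. Scored by eye 13 to 15 days on, 0–100 scale.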
# large (Lg) crabgrass = assay: Test A preemergence; format: in vivo, Digitaria sanguinalis; conditions: Digitaria sanguinalis, pre-emergence, 240 h, 0 to 100 scale where 0 is no effect and 100 is complete control
# In short: as §1
# corn = assay: Test A postemergence; format: in vivo, Zea mays; conditions: Zea mays, post-emergence, 240 h, 0 to 100 scale where 0 is no effect and 100 is complete control
# In short: as §1
# galium = assay: Test C postemergence; format: in vivo, Galium aparine; conditions: Galium, post-emergence
# In short: as §2
# wheat = assay: Test A postemergence; format: in vivo, Triticum aestivum; conditions: Triticum aestivum, post-emergence, 240 h, 0 to 100 scale where 0 is no effect and 100 is complete control
# In short: as §1
# oilseed rape = assay: Test C postemergence; format: in vivo, Brassica napus
# In short: as §2
# pigweed [2] = assay: Test C postemergence; format: in vivo, Amaranthus retroflexus
# In short: as §2
# giant foxtail = assay: Test C preemergence; format: in vivo, Setaria faberii; conditions: Setaria faberi, pre-emergence
# In short: as §2
# morningglory = assay: Test A preemergence; format: in vivo, Ipomoea spp.
# In short: as §1
# pigweed [3] = assay: Test A preemergence; format: in vivo, Amaranthus retroflexus
# In short: as §1
# ragweed [4] = assay: Test C preemergence; format: in vivo, Ambrosia elatior; conditions: Ambrosia artemisiifolia, pre-emergence, preemergence, read-out: Ragweed plant response rating
# In short: as §2
# waterhemp = assay: Test C preemergence; format: in vivo, Amaranthus rudis; conditions: Amaranthus tuberculatus, pre-emergence, preemergence, read-out: Waterhemp plant response rating
# In short: as §2
# velvetleaf [5] = assay: Test C postemergence; format: in vivo, Abutilon theophrasti
# In short: as §2
# ragweed [6] = assay: Test C postemergence; format: in vivo, Ambrosia elatior
# In short: as §2
# soybean = assay: Test C preemergence; format: in vivo, Glycine max; conditions: Glycine max, pre-emergence, preemergence, read-out: Soybean plant response rating
# In short: as §2
# [7] = 16 g ai/ha, scale 0 to 100 (0 no effect, 100 complete control)
# [8] = 62 g ai/ha, scale 0 (no effect) to 100 (complete control)
# [9] = 125 g ai/ha, scale 0 (no effect) to 100 (complete control)
# [10] = 31 g ai/ha, postemergence, visual rating, scale 0 to 100 (0 no effect, 100 complete control), 13 to 15 days
compound,measurement,setting,value
"FC(F)(F)c1cn(-c2ccccc2Oc2ncc(Cl)cn2)nn1 [Compound 166, 5-chloro-2-[2-[4-(trifluoromethyl)-1H-1,2,3-triazol-1-yl]phenoxy]pyrimidine]",Velvetleaf plant response rating (0 to 100 scale),velvetleaf [1]; 125 g ai/ha,100
same,pest or weed control at 500 g/ha,"velvetleaf [1]; Abutilon theophrasti, pre-emergence, 240 h, 500 g ai/ha, 0 to 100 scale where 0 is no effect and 100 is complete control, read-out: Velvetleaf plant response rating",100%
same,pest or weed control at 16 g/ha,johnsongrass; [7],5%
same,pest or weed control at 62 g/ha,johnsongrass; [8],85%
same,pest or weed control at 125 g/ha,johnsongrass; [9],95%
same,pest or weed control at 125 g/ha,"large (Lg) crabgrass; 125 g ai/ha, read-out: Plant response rating, Crabgrass, Large",100%
same,pest or weed control at 500 g/ha,"large (Lg) crabgrass; 500 g ai/ha, read-out: Crabgrass, Large plant response rating",100%
same,plant injury at 125 g/ha,"corn; 125 g ai/ha, read-out: Corn plant response rating",50%
same,"Corn plant response rating (crop injury, 0 = no effect, 100 = complete kill) at 500 g/ha",corn; 500 g ai/ha,60%
same,pest or weed control at 16 g/ha,"galium; 16 g ai/ha, postemergence, 0 is no effect, 100 is complete control, read-out: Plant response rating (0 to 100), Galium",80%
same,pest or weed control at 31 g/ha,"galium; 31 g ai/ha, postemergence, visual rating, scale 0 to 100 (0 no effect, 100 complete control), 13 to 15 days, read-out: Galium plant response rating",85%
same,pest or weed control at 125 g/ha,"galium; 125 g ai/ha, postemergence, visual rating, scale 0 to 100 (0 no effect, 100 complete control), read-out: Plant response rating, Galium",95%
same,pest or weed control at 62 g/ha,"galium; Postemergence, 62 g ai/ha, scale 0 to 100 (0 no effect, 100 complete control), read-out: Plant response rating, Galium",90%
same,plant injury at 125 g/ha,"wheat; 125 g ai/ha, read-out: Wheat plant response rating",60%
same,plant injury at 500 g/ha,"wheat; 500 g ai/ha, read-out: Plant response rating, Wheat",70%
same,Oilseed Rape plant response rating,oilseed rape; [10],90
same,plant injury at 16 g/ha,"oilseed rape; Brassica napus, post-emergence, 16 g ai/ha, postemergence, 0 is no effect, 100 is complete control, read-out: Plant response rating (0 to 100), Oilseed Rape",60%
same,plant injury at 125 g/ha,"oilseed rape; Brassica napus, post-emergence, 125 g ai/ha, postemergence, visual rating, scale 0 to 100 (0 no effect, 100 complete control), read-out: Plant response rating, Oilseed Rape",98%
same,plant injury at 62 g/ha,"oilseed rape; Brassica napus, post-emergence, Postemergence, 62 g ai/ha, scale 0 to 100 (0 no effect, 100 complete control), read-out: Plant response rating, Oilseed Rape",95%
same,Pigweed plant response rating,pigweed [2]; [10],85
same,pest or weed control at 16 g/ha,"pigweed [2]; Amaranthus retroflexus, post-emergence, 16 g ai/ha, postemergence, 0 is no effect, 100 is complete control, read-out: Plant response rating (0 to 100), Pigweed",80%
same,pest or weed control at 125 g/ha,"pigweed [2]; Amaranthus retroflexus, post-emergence, 125 g ai/ha, postemergence, visual rating, scale 0 to 100 (0 no effect, 100 complete control), read-out: Plant response rating, Pigweed",98%
same,pest or weed control at 62 g/ha,"pigweed [2]; Amaranthus retroflexus, post-emergence, Postemergence, 62 g ai/ha, scale 0 to 100 (0 no effect, 100 complete control), read-out: Plant response rating, Pigweed",90%
same,pest or weed control at 16 g/ha,"giant foxtail; 16 g ai/ha, preemergence, scale 0 to 100 (0 no effect, 100 complete control), read-out: Foxtail, Giant plant response rating",100%
same,pest or weed control at 62 g/ha,"giant foxtail; 62 g ai/ha, preemergence, scale 0 (no effect) to 100 (complete control), read-out: Foxtail, Giant plant response rating",100%
same,pest or weed control at 125 g/ha,"giant foxtail; 125 g ai/ha, preemergence, scale 0 (no effect) to 100 (complete control), read-out: Foxtail, Giant plant response rating",100%
same,pest or weed control at 31 g/ha,"giant foxtail; Preemergence, 31 g ai/ha, scale 0 to 100, 0 no effect, 100 complete control, read-out: Plant response rating, Foxtail, Giant",100%
same,Morningglory plant response rating (0 to 100 scale),morningglory; 125 g ai/ha,100
same,pest or weed control at 500 g/ha,"morningglory; Ipomoea, pre-emergence, 240 h, 500 g ai/ha, 0 to 100 scale where 0 is no effect and 100 is complete control, read-out: Morningglory plant response rating",100%
same,Pigweed plant response rating (0 to 100 scale),pigweed [3]; 125 g ai/ha,100
same,pest or weed control at 500 g/ha,"pigweed [3]; Amaranthus retroflexus, pre-emergence, 240 h, 500 g ai/ha, 0 to 100 scale where 0 is no effect and 100 is complete control, read-out: Pigweed plant response rating",100%
same,pest or weed control at 16 g/ha,ragweed [4]; [7],50%
same,pest or weed control at 62 g/ha,ragweed [4]; [8],95%
same,pest or weed control at 125 g/ha,ragweed [4]; [9],95%
same,pest or weed control at 16 g/ha,waterhemp; [7],100%
same,pest or weed control at 62 g/ha,waterhemp; [8],100%
same,pest or weed control at 125 g/ha,waterhemp; [9],100%
same,Velvetleaf plant response rating,velvetleaf [5]; [10],55
same,pest or weed control at 16 g/ha,"velvetleaf [5]; Abutilon theophrasti, post-emergence, 16 g ai/ha, postemergence, 0 is no effect, 100 is complete control, read-out: Plant response rating (0 to 100), Velvetleaf",45%
same,pest or weed control at 125 g/ha,"velvetleaf [5]; Abutilon theophrasti, post-emergence, 125 g ai/ha, postemergence, visual rating, scale 0 to 100 (0 no effect, 100 complete control), read-out: Plant response rating, Velvetleaf",85%
same,pest or weed control at 62 g/ha,"velvetleaf [5]; Abutilon theophrasti, post-emergence, Postemergence, 62 g ai/ha, scale 0 to 100 (0 no effect, 100 complete control), read-out: Plant response rating, Velvetleaf",80%
same,Ragweed plant response rating,ragweed [6]; [10],45
same,pest or weed control at 16 g/ha,"ragweed [6]; Ambrosia artemisiifolia, post-emergence, 16 g ai/ha, postemergence, 0 is no effect, 100 is complete control, read-out: Plant response rating (0 to 100), Ragweed",35%
same,pest or weed control at 125 g/ha,"ragweed [6]; Ambrosia artemisiifolia, post-emergence, 125 g ai/ha, postemergence, visual rating, scale 0 to 100 (0 no effect, 100 complete control), read-out: Plant response rating, Ragweed",80%
same,pest or weed control at 62 g/ha,"ragweed [6]; Ambrosia artemisiifolia, post-emergence, Postemergence, 62 g ai/ha, scale 0 to 100 (0 no effect, 100 complete control), read-out: Plant response rating, Ragweed",60%
same,plant injury at 16 g/ha,soybean; [7],60%
same,plant injury at 62 g/ha,soybean; [8],95%
same,plant injury at 125 g/ha,soybean; [9],95%
